Data set [1] deals with Rattus norvegicus. Put plainly: Gastrotoxicity in albino rat assessed as ulcer index at 100 mg/kg, po after 5 hrs. In kind it is toxicity, organism-based. The arrangement: dose 100 mg/kg, route oral. As to conditions: in vivo; call rule not given here.
The test system of data set [2] is Rattus norvegicus. The experiment in a line: Antiinflammatory activity in albino rat assessed as inhibition of carrageenan-induced paw edema at 100 mg/kg, po treated for 30 mins measured after 1 hr of carrageenan challenge. In kind it is functional. A general note: Carrageenan injected into the paw causes an acute inflammation.
Data set [3] relates to Rattus norvegicus. Put plainly: Antiinflammatory activity in albino rat assessed as inhibition of carrageenan-induced paw edema at 100 mg/kg, po treated for 30 mins measured after 2 hrs of carrageenan challenge. In kind it is functional.
For data set [4], the system named is Rattus norvegicus. The experiment in a line: Antiinflammatory activity in albino rat assessed as inhibition of carrageenan-induced paw edema at 100 mg/kg, po treated for 30 mins measured after 3 hrs of carrageenan challenge. In kind it is functional.
Data set [5] can be described thus: Induction of NO release in phosphate buffer at pH 1 at 100 uM by Griess assay. The data set is classed as physicochemical. Conditions: pH 1, 100 µM. For orientation: Nitrite, measured by Griess reagent, commonly stands in for NO production.

As for `COc1ccc(C2CC(c3ccc(OC)c(OC)c3)=NN2C(=O)CBr)c(OC)c1` (stereo not given), in data set [1], the UI was 30. Further, the inhibition in vivo (commonly the share of the control response that was lost under treatment) at 100 mg/kg in data set [2] amounted to 53%; in data set [3] it was 67%; in data set [4] it was 71%.
As to `COc1ccc(C2=NNC(c3ccco3)C2)cc1OC` (stereo not given), the UI in data set [1] is on record as 26.5. The inhibition in vivo at 100 mg/kg came to 45% in data set [2], 53% in data set [3] and 60% in data set [4]. Besides, in data set [5], the Activity entry is recorded as “Not Active”.
As for `COc1ccc(C2CC(c3ccc(OC)c(OC)c3)=NN2C(=O)C(C)Br)c(OC)c1` (stereo not given), the UI in data set [1] came out at 23. Moreover, the results for the inhibition in vivo at 100 mg/kg in data set [2], in data set [3] and in data set [4] were 58%, 63% and 69%, respectively.
In the same order, the values of `COc1ccc(C2=NN(C(=O)C(C)Br)C(c3c(Cl)cccc3Cl)C2)cc1OC` (stereo not given) are 10, 51%, 56% and 60%.
For the molecule `COc1ccc(C2=NN(C(=O)CBr)C(c3c(Cl)cccc3Cl)C2)cc1OC` (stereo not given), the UI in data set [1] was 3. Moreover, the values for the inhibition in vivo at 100 mg/kg in data set [2], in data set [3] and in data set [4] were 48%, 58% and 69%, respectively.
Take `COc1ccc(C2=NN(C(=O)CBr)C(c3c(Cl)cccc3Cl)C2)cc1` (stereo not given): the UI in data set [1] worked out at 6. For the same molecule, the figures for the inhibition in vivo at 100 mg/kg in data set [2], in data set [3] and in data set [4] were 43%, 49% and 7%, respectively.
Regarding `COc1ccc(C2=NN(C(=O)CBr)C(c3ccco3)C2)cc1OC` (stereo not given), the UI in data set [1] was 13. Also, the values for the inhibition in vivo at 100 mg/kg in data set [2], in data set [3] and in data set [4] were 38%, 46% and 51%, respectively. Besides, in data set [5], the Activity result is given as “Not Active”.
Take `COc1ccc2c(c1)c(CC(=O)O)c(C)n2C(=O)c1ccc(Cl)cc1` [INDOMETHACIN]: in data set [1], the UI is reported as 43.5. Moreover, the inhibition in vivo at 100 mg/kg came out at 58% in data set [2], 67% in data set [3] and 82% in data set [4].
Consider `COc1ccc(C2=NN(C(=O)C(C)Br)C(c3ccco3)C2)cc1OC` (stereo not given), for which the UI in data set [1] is recorded as 10. In addition, the inhibition in vivo at 100 mg/kg came to 22% in data set [2], 36% in data set [3] and 42% in data set [4].
Turning to `COc1ccc(C2=NNC(c3c(Cl)cccc3Cl)C2)cc1OC` (stereo not given), in data set [1], the UI was found to be 3. Also, the values for the inhibition in vivo at 100 mg/kg in data set [2], in data set [3] and in data set [4] were 26%, 49% and 58%, respectively.
For the molecule `COc1ccc(C2=NNC(c3c(Cl)cccc3Cl)C2)cc1` (stereo not given), in data set [1], the UI is reported as 31. The inhibition in vivo at 100 mg/kg in data set [2] came out at 54%; in data set [3] it was 58%; in data set [4], 60%.
Turning to `COc1ccc(C2CC(c3ccc(OC)c(OC)c3)=NN2)c(OC)c1` (stereo not given), in data set [1], the UI was determined as 7. The inhibition in vivo at 100 mg/kg was 38% in data set [2], 39% in data set [3] and 42% in data set [4].
